Legend:
Assay type in all cases: cell-based
tyrosinase = molecular target: T1, tyrosinase (Mus musculus, UniProt P11344); assay: Tyrosinase activity (L-DOPA, dopachrome) in α-MSH-stimulated B16F10 melanoma cells; conditions: 200 nM α-MSH, fucosterol 5, 10, 20 μM, 48 hrs, P<0.01, FIG. 4
T1 construct: endogenous in cells; host or cells: B16F10 melanoma cells (α-MSH stimulated)
T1 sequence (P11344 19-533): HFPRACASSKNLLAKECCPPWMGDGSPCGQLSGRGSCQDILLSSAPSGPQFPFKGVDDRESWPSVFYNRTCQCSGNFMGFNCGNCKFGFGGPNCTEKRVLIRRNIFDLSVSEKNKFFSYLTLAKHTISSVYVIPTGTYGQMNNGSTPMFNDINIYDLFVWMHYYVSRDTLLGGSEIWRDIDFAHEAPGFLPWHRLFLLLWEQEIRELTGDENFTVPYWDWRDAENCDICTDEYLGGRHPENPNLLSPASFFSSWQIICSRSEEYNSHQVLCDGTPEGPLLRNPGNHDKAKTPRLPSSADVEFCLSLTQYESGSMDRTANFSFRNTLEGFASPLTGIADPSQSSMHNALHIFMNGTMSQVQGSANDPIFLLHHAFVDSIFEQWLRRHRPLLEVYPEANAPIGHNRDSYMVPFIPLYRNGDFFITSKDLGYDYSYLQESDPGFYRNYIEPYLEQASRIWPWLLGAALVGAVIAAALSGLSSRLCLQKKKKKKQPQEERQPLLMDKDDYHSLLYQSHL
Experimental: B16F10 melanoma cells were incubated in a DMEM medium including 10% fetal bovine serum and then added in a 6-well plate with 2.5×10^5 cell/mL (the final volume of 3 mL). After being incubated for 24 hrs, the medium was removed and fucosterol which was dissolved in the DMEM medium including 200 nM α-MSH was treated at 5, 10, and 20 μM concentrations, respectively. After 48 hrs, the incubated medium was removed from the 6-well plate and PBS including 1% Triton X-100 was added to collect the cells. The collected cells were centrifuged for 10 min and 150 μL of a supernatant was put in a 96-well plate and 50 μL of L-3,4-dihydroxyphenylalanine (L-DOPA) was added. With respect to an amount of dopachrome generated after incubated for 30 min at 37° C., absorbance was measured at 475 nm by using a microplate reader (Versa max, Sunnyvale, Calif., USA). In this case, cells without the fucosterol were set to a control group and the tyrosinase activity degree was measured in the control group and cells treated with the fucosterol. According to Equation 2 below, the tyrosinase activity compared with the control group was calculated and the result was illustrated in FIG. 4. Tyrosinase activity (%) compared with control group=Reaction absorbance of each test material/Reaction absorbance of control group×100 [Equation 2]

[1] = test system: TRP-1 (tyrosinase-related protein 1); assay: TRP-1 protein expression (western blot) in B16F10 melanoma cells; conditions: 200 nM α-MSH, fucosterol 5 and 20 μM, 24 hrs, FIG. 6
Experimental: B16F10 melanoma cells were incubated in a DMEM medium including 10% fetal bovine serum and then added in a 6-well plate with 2.5×10^5 cell/mL (the final volume of 3 mL). After being incubated for 24 hrs, the medium was removed and fucosterol which was dissolved in the DMEM medium including 200 nM α-MSH was treated at 5 and 20 μM of concentrations, respectively. The cells after 24 hrs were lysed with a NP40 buffer solution including proteinase inhibitor cocktail and the protein amount extracted from the cells was quantified by using a Bradford reagent. The quantified protein was boiled for 5 min and isolated by electrophoresis with 10% SDS-PAGE to transfer the isolated proteins to a nitrocellular membrane. A primary antibody of […] and […] was diluted in 2.5% bovine serum albumin at a ratio of 1:1000 and reacted with the protein transferred to the nitrocellular membrane for 20 hrs at room temperature. The primary antibody was reacted and then the nitrocellular membrane was washed three times by using the TBST for 10 min. […] As the measured result, the protein expression of […] and […] was verified and it was shown that the loading amount of the protein was constant by α-tubulin.

transglutaminase = assay: Transglutaminase protein expression (western blot) in HaCaT human keratinocytes; conditions: HaCaT cells, fucosterol 5, 10, 20 μM, 24 hrs, FIG. 10
Experimental: HaCaT human keratinocytes were incubated in a Dulbecco's Modified Eagle's Media (DMEM) medium including 10% fetal bovine serum and then put in a 6-well plate with 2×10^5 cell/ml (the final volume of 3 ml). After being incubated for 24 hrs, the medium was removed and fucosterol which was dissolved in the DMEM medium was treated at 5, 10, and 20 μM concentrations, respectively. After 24 hrs, the HaCaT human keratinocytes were lysed with a NP40 buffer solution including proteinase inhibitor cocktail. The protein amount extracted from the HaCaT human keratinocytes was quantified by using a Bradford method. The sample was boiled for 5 min and then the same amount of protein ([…]) was isolated by electrophoresis with 10% SDS-PAGE. The isolated proteins after electrophoresis were transferred to a nitrocellular membrane and western blot was performed. A primary antibody was reacted and the nitrocellular membrane was washed three times by using Tris-buffer saline tween20 (TBST) for 10 min. In this case, the kind and the dilution of the primary antibody used in the present invention is 1:1000. In a secondary antibody reaction, a secondary antibody was put in the membrane performing the primary antibody reaction and reacted for 2 hrs at room temperature. In this case, a dilution of the secondary antibody was 1:5000. […]

filaggrin = assay: Filaggrin mRNA expression (RT-PCR) in HaCaT human keratinocytes; conditions: HaCaT cells, fucosterol 5, 10, 20 μM, 24 hrs, FIG. 11
Experimental: HaCaT human keratinocytes were incubated in a Dulbecco's Modified Eagle's Media (DMEM) medium including 10% fetal bovine serum and then put in a 6-well plate with 2×10^5 cell/ml (the final volume of 3 ml). After being incubated for 24 hrs, the medium was removed and fucosterol which was dissolved in the DMEM medium was treated at 5, 10, and 20 μM concentrations, respectively. After 24 hrs, the total RNA was collected by using a TRIzol reagent (Invitrogen, Carlsbad, Calif., USA) and reverse-transcribed and then a reverse transcription-polymerase chain reaction (RT-PCR) analysis was performed below. First, for cDNA synthesis, the RNA was reverse-transcribed by reverse transcriptase. The RT-PCR was performed by specific primers below and the result was illustrated in FIG. 11.

Structure (SMILES): C/C=C(\CC[C@@H](C)[C@H]1CC[C@H]2[C@@H]3CC=C4C[C@@H](O)CC[C@]4(C)[C@H]3CC[C@]12C)C(C)C [fucosterol]
- inhibitory effect on tyrosinase activity (tyrosinase): very excellent inhibitory effect
- protein expression of TRP-1 [1]: reduced
- protein expression of transglutaminase (transglutaminase): increased
- mRNA expression of filaggrin (filaggrin): increased

Reference: US9956157B2, “Composition containing fucosterol for skin whitening or moisturizing” (INDUSTRY-ACADEMIC COOPERATION FOUNDATION, YONSEI UNIVERSITY, priority 2014, dated 2018)
